The SangsterLogP compilation

Assay: method code SF-AS, from DOI: 10.1111/j.2042-7158.1992.tb05470.x, PMID: 1357140
Settings: pH 7.4

## CC(C)NC(=S)NS(=O)(=O)c1cnccc1NC1CCCCCC1
  logD: 0.96
